Our source for the IC50 values is US9085576B2 (AMGEN INC., priority 2013, dated 2015).

Test [1] addresses Beta Secretase enzyme (BACE) (Homo sapiens (Human), UniProt P56817). Put plainly: In vitro enzymatic BACE FRET assay. The format is biochemical. The note with it: read-out: BACE1 Enzyme assay IC50.
The target in the next test is Cathepsin D (Cat D) (Homo sapiens (Human), UniProt P07339). Briefly: In vitro enzymatic Cathepsin D (Cat D) FRET assay. Particulars: read-out: CatD IC50. The format is biochemical.
In another test the target is BACE (Homo sapiens (Human), UniProt P56817). Briefly: In vitro BACE cell-based assay (Aβ40 in conditioned medium, sandwich ELISA). A general note: ELISA stands for enzyme-linked immunosorbent assay.

pIC50: −log10 of the molar value.

Cathepsin D (Cat D), sequence (P07339 65-412, species assumed): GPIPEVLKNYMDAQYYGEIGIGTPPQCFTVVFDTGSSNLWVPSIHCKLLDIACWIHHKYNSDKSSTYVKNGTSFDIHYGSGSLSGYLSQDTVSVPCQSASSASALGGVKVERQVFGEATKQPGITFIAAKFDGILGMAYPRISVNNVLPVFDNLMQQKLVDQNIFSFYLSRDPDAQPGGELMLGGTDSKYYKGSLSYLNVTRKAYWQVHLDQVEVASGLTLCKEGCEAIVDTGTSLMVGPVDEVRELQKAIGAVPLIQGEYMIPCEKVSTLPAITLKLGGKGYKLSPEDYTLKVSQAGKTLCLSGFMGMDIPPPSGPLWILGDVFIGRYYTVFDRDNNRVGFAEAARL
Beta Secretase enzyme (BACE), sequence (P56817 46-501): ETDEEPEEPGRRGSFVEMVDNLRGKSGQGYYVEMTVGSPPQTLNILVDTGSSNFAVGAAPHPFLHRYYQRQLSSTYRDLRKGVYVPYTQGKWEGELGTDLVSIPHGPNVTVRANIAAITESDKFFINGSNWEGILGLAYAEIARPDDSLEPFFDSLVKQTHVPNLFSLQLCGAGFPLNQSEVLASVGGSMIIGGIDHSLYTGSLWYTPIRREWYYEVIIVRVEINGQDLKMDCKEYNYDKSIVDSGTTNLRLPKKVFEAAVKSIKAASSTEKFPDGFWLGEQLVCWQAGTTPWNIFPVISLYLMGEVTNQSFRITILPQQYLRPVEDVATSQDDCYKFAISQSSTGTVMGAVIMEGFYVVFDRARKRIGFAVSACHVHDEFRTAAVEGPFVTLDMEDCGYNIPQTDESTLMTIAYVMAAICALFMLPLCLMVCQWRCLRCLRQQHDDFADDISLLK
BACE, sequence (P56817 46-501, species assumed): as the sequence (P56817 46-501) above

In the case of `Cc1cc(OC(F)F)cnc1C(=O)Nc1cc(F)c(Cl)c([C@]2(CF)N=C(N)O[C@H]3C[C@H]32)c1` [Example 157, N-(3-((1S,5R,6S)-3-amino-5-(fluoromethyl)-2-oxa-4-azabicyclo[4.1.0]hept-3-en-5-yl)-4-chloro-5-fluorophenyl)-5-(difluoromethoxy)-3-methylpicolinamide], the pIC50 (as a rule, the negative decadic logarithm of the IC50, by convention in mol/L) in test [1] is 4.55; on Cathepsin D (Cat D), 3.40. Besides, at BACE, the IC50 – broadly, the midpoint of a concentration-inhibition curve – is over 15.6 µM.

In the case of `Cc1cc(OC(F)F)cnc1C(=O)Nc1cc(F)c(Cl)c([C@@]2(CF)N=C(N)O[C@@H]3C[C@@H]32)c1` [Example 158, N-(3-((1R,5S,6R)-3-amino-5-(fluoromethyl)-2-oxa-4-azabicyclo[4.1.0]hept-3-en-5-yl)-4-chloro-5-fluorophenyl)-5-(difluoromethoxy)-3-methylpicolinamide], the values for the pIC50 (in test [1]; on Cathepsin D (Cat D)) were 7.39 and 3.64, respectively. For the same compound, the IC50 at BACE is 0.0383 µM.

For `NC1=N[C@@](c2cc(NC(=O)c3cnc(OCC(F)(F)F)cn3)ccc2F)(C(F)F)[C@H]2C[C@H]2O1` [Example 160, N-(3-((1R,5S,6R)-3-amino-5-(difluoromethyl)-2-oxa-4-azabicyclo[4.1.0]hept-3-en-5-yl)-4-fluorophenyl)-5-(2,2,2-trifluoroethoxy)pyrazine-2-carboxamide], the pIC50 is 7.54 in test [1] and 2.70 on Cathepsin D (Cat D). Moreover, on BACE, 0.0808 µM corresponded to half-maximal inhibition (IC50).

In the case of `CC(C)n1cc(Cl)c(C(=O)Nc2ccc(F)c([C@@]3(C(F)F)N=C(N)O[C@@H]4C[C@@H]43)c2)n1` [Example 161, N-(3-((1R,5S,6R)-3-amino-5-(difluoromethyl)-2-oxa-4-azabicyclo[4.1.0]hept-3-en-5-yl)-4-fluorophenyl)-4-chloro-1-isopropyl-1H-pyrazole-3-carboxamide], the pIC50 in test [1] was under 4.40; on Cathepsin D (Cat D) it was 3.53. Moreover, on BACE, the IC50 is over 15.6 µM.

In the case of `NC1=N[C@](CF)(c2cc(NC(=O)c3nn(C(F)F)cc3Cl)ccc2F)[C@H]2C[C@H]2O1` [Example 164, N-(3-((1R,5S,6R)-3-amino-5-(fluoromethyl)-2-oxa-4-azabicyclo[4.1.0]hept-3-en-5-yl)-4-fluorophenyl)-4-chloro-1-(difluoromethyl)-1H-pyrazole-3-carboxamide], the pIC50 is 7.63 in test [1] and 3.02 on Cathepsin D (Cat D). This compound also registered an IC50 on BACE of 0.0109 µM.

Regarding `NC1=N[C@@](c2cc(NC(=O)c3cnc(OCc4nccs4)cn3)ccc2F)(C(F)F)[C@H]2C[C@H]2O1` [Example 165, N-(3-((1R,5S,6R)-3-amino-5-(difluoromethyl)-2-oxa-4-azabicyclo[4.1.0]hept-3-en-5-yl)-4-fluorophenyl)-5-(thiazol-2-ylmethoxy)pyrazine-2-carboxamide], the pIC50 in test [1] is 7.72; at Cathepsin D (Cat D), 3.42. At BACE, this compound gave an IC50 of 0.0606 µM.

Consider `Cc1nc(C(=O)Nc2ccc(F)c([C@@]3(C(F)F)N=C(N)O[C@@H]4C[C@@H]43)c2)co1` [Example 166, N-(3-((1R,5S,6R)-3-amino-5-(difluoromethyl)-2-oxa-4-azabicyclo[4.1.0]hept-3-en-5-yl)-4-fluorophenyl)-2-methyloxazole-4-carboxamide], for which the pIC50 is 7.21 in test [1] and 3.43 at Cathepsin D (Cat D). The IC50 against BACE came to 0.103 µM.

`NC1=N[C@@](c2cc(NC(=O)c3cnc(OCc4cscn4)cn3)ccc2F)(C(F)F)[C@H]2C[C@H]2O1` [Example 169, N-(3-((1R,5S,6R)-3-amino-5-(difluoromethyl)-2-oxa-4-azabicyclo[4.1.0]hept-3-en-5-yl)-4-fluorophenyl)-5-(thiazol-4-ylmethoxy)pyrazine-2-carboxamide]: the pIC50 is 7.44 in test [1] and 3.24 at Cathepsin D (Cat D). Inhibition against BACE was half-maximal at 0.0418 µM (IC50).

`NC1=N[C@@](c2cc(NC(=O)c3cnc(OCc4cncs4)cn3)ccc2F)(C(F)F)[C@H]2C[C@H]2O1` [Example 170, N-(3-((1R,5S,6R)-3-amino-5-(difluoromethyl)-2-oxa-4-azabicyclo[4.1.0]hept-3-en-5-yl)-4-fluorophenyl)-5-(thiazol-5-ylmethoxy)pyrazine-2-carboxamide]: the negative-log IC50 (pIC50) is 7.06 in test [1] and 3.35 at Cathepsin D (Cat D). For the same compound, at BACE, the IC50 was determined as 0.56 µM.

For `NC1=N[C@@](c2cc(NC(=O)c3cnc(OCc4cnco4)cn3)ccc2F)(C(F)F)[C@H]2C[C@H]2O1` [Example 171, N-(3-((1R,5S,6R)-3-amino-5-(difluoromethyl)-2-oxa-4-azabicyclo[4.1.0]hept-3-en-5-yl)-4-fluorophenyl)-5-(oxazol-5-ylmethoxy)pyrazine-2-carboxamide], the results for the pIC50 (in test [1]; on Cathepsin D (Cat D)) were 7.09 and 3.07, respectively. Further, half-maximal inhibition against BACE (IC50) was put at 0.323 µM.

For the compound `NC1=N[C@@](c2cc(NC(=O)c3ccc(OCc4nccs4)cn3)ccc2F)(C(F)F)[C@H]2C[C@H]2O1` [Example 172, N-(3-((1R,5S,6R)-3-amino-5-(difluoromethyl)-2-oxa-4-azabicyclo[4.1.0]hept-3-en-5-yl)-4-fluorophenyl)-5-(thiazol-2-ylmethoxy) picolinamide], the pIC50 in test [1] was 7.08; at Cathepsin D (Cat D) it was 3.44. For the same compound, the IC50 against BACE was found to be 0.446 µM.

In the case of `NC1=N[C@@](c2cc(NC(=O)c3ccc(OCc4ncco4)cn3)ccc2F)(C(F)F)[C@H]2C[C@H]2O1` [Example 173, N-(3-((1R,5S,6R)-3-amino-5-(difluoromethyl)-2-oxa-4-azabicyclo[4.1.0]hept-3-en-5-yl)-4-fluorophenyl)-5-(oxazol-2-ylmethoxy) picolinamide], the results for the pIC50 (in test [1]; at Cathepsin D (Cat D)) were 7.44 and 3.00, respectively. For the same compound, the IC50 at BACE turned out to be 0.0789 µM.

As for `Cc1csc(C(=O)Nc2ccc(F)c([C@@]3(C(F)F)N=C(N)O[C@@H]4C[C@@H]43)c2)c1` [Example 176, N-(3-((1R,5S,6R)-3-amino-5-(difluoromethyl)-2-oxa-4-azabicyclo[4.1.0]hept-3-en-5-yl)-4-fluorophenyl)-4-methylthiophene-2-carboxamide], the pIC50 in test [1] is 6.72; on Cathepsin D (Cat D) it was 3.08. The compound also displayed an IC50 on BACE of 0.156 µM.

Regarding `NC1=N[C@@](c2cc(NC(=O)c3cc(Cl)cs3)ccc2F)(C(F)F)[C@H]2C[C@H]2O1` [Example 177, N-(3-((1R,5S,6R)-3-amino-5-(difluoromethyl)-2-oxa-4-azabicyclo[4.1.0]hept-3-en-5-yl)-4-fluorophenyl)-4-chlorothiophene-2-carboxamide], the pIC50 was 6.73 in test [1] and 3.12 at Cathepsin D (Cat D). Moreover, the IC50 against BACE was 0.373 µM.

Regarding `N#Cc1csc(C(=O)Nc2ccc(F)c([C@@]3(C(F)F)N=C(N)O[C@@H]4C[C@@H]43)c2)c1` [Example 178, N-(3-((1R,5S,6R)-3-amino-5-(difluoromethyl)-2-oxa-4-azabicyclo[4.1.0]hept-3-en-5-yl)-4-fluorophenyl)-4-cyanothiophene-2-carboxamide], the pIC50 in test [1] was 5.97; at Cathepsin D (Cat D), 3.27. Also, on BACE, it took 1.56 µM to reach half-maximal inhibition (IC50).

Turning to `NC1=N[C@@](c2cc(NC(=O)c3ccc(Cl)s3)ccc2F)(C(F)F)[C@H]2C[C@H]2O1` [Example 179, N-(3-((1R,5S,6R)-3-amino-5-(difluoromethyl)-2-oxa-4-azabicyclo[4.1.0]hept-3-en-5-yl)-4-fluorophenyl)-5-chlorothiophene-2-carboxamide], the pIC50 in test [1] is 6.06; at Cathepsin D (Cat D), 3.32. On BACE, the IC50 was 0.661 µM.

Turning to `NC1=N[C@@](c2cc(NC(=O)c3ccc(OCF)cn3)ccc2F)(C(F)F)[C@H]2C[C@H]2O1` [Example 180, N-(3-((1R,5S,6R)-3-amino-5-(difluoromethyl)-2-oxa-4-azabicyclo[4.1.0]hept-3-en-5-yl)-4-fluorophenyl)-5-(fluoromethoxy) picolinamide], the pIC50 is 7.04 in test [1] and under 5.78 at Cathepsin D (Cat D). For the same compound, the half-inhibitory concentration (IC50) against BACE was 0.0449 µM.

Take `NC1=N[C@@](c2cc(NC(=O)c3csc(Cl)c3)ccc2F)(C(F)F)[C@H]2C[C@H]2O1` [Example 181, N-(3-((1R,5S,6R)-3-amino-5-(difluoromethyl)-2-oxa-4-azabicyclo[4.1.0]hept-3-en-5-yl)-4-fluorophenyl)-5-chlorothiophene-3-carboxamide]: the negative-log IC50 (pIC50) was 5.85 in test [1] and 3.24 on Cathepsin D (Cat D). On BACE, this compound came in with an IC50 of 1.14 µM.

With `CS(=O)(=O)c1ccc(C(=O)Nc2ccc(F)c([C@@]3(C(F)F)N=C(N)O[C@@H]4C[C@@H]43)c2)nc1` [Example 182, N-(3-((1R,5S,6R)-3-amino-5-(difluoromethyl)-2-oxa-4-azabicyclo[4.1.0]hept-3-en-5-yl)-4-fluorophenyl)-5-(methylsulfonyl) picolinamide], the results for the pIC50 (in test [1]; on Cathepsin D (Cat D)) were 4.88 and 3.25, respectively. At BACE, this compound came in with an IC50 of 3.36 µM.

On to `NC1=N[C@](CF)(c2cc(NC(=O)c3ccc(OCF)cn3)ccc2Cl)[C@H]2C[C@H]2O1` [Example 183, N-(3-((1R,5S,6R)-3-amino-5-(fluoromethyl)-2-oxa-4-azabicyclo[4.1.0]hept-3-en-5-yl)-4-chlorophenyl)-5-(fluoromethoxy) picolinamide], for which the pIC50 in test [1] was 7.00; on Cathepsin D (Cat D), 3.05. The compound also gave an IC50 on BACE of 0.0218 µM.

With `Cc1cc(OCC#N)cnc1C(=O)Nc1ccc(F)c([C@@]2(C(F)F)N=C(N)O[C@@H]3C[C@@H]32)c1` [Example 184, N-(3-((1R,5S,6R)-3-amino-5-(difluoromethyl)-2-oxa-4-azabicyclo[4.1.0]hept-3-en-5-yl)-4-fluorophenyl)-5-(cyanomethoxy)-3-methylpicolinamide], the pIC50 in test [1] is 6.45; on Cathepsin D (Cat D), 2.96. Besides, the IC50 at BACE stood at 0.62 µM.

Consider `Cc1cnc(C(=O)Nc2ccc(F)c([C@@]3(C(F)F)N=C(N)O[C@@H]4C[C@@H]43)c2)c(C)c1` [Example 185, N-(3-((1R,5S,6R)-3-amino-5-(difluoromethyl)-2-oxa-4-azabicyclo[4.1.0]hept-3-en-5-yl)-4-fluorophenyl)-3,5-dimethylpicolinamide], for which the pIC50 in test [1] was 6.97; at Cathepsin D (Cat D) it was 3.12. Also, at BACE, the IC50 was found to be 0.148 µM.
